Measured values as given in patent publication US9169217B2, “Arylalkyl esters of 4-amino-6-(substituted phenyl)-picolinates and 6-amino-2-(substituted phenyl)-pyrimidinecarboxylates and their use as selective herbicides for crops” (Dow AgroSciences LLC, priority 2011, dated 2015).
Read-outs that look alike come from different tables or passages of the source.

Key:
Type in all cases: in vivo
[1] = tested on: Scirpus juncoides ROXB. (Japanese bulrush); assay: In-water applied herbicidal activity in transplanted paddy rice (Example 17); settings: for GR50 / GR80 / GR90: SCPJU, in-water applied, probit analysis; for GR50: 50% growth reduction; for GR80: 80% growth reduction; for GR90: 90% growth reduction
Method in brief: (§1)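 Ester forms of test compounds, in acetone diluted with aqueous Agri-dex (final 1.25% v/v crop oil concentrate), were injected into the flood water of paddy pots holding weeds or rice at the 2nd–3rd leaf stage in mud (pH ~7.3–7.8). Visual injury versus untreated plants was scored 0–100% after 3 weeks in greenhouse (~29/26 °C). GR50/GR80 were derived by probit analysis.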

[2] = tested on: Fimbristylis miliacea (L.) VAHL (globe fringerush); assay: as above; settings: for GR50 / GR80 / GR90: FIMMI, in-water applied, probit analysis; for GR50: 50% growth reduction; for GR80: 80% growth reduction; for GR90: 90% growth reduction; for Visual Injury (%) FIMMI: rice cropping systems, in-water applied (paddy), 35 g ae/ha, 21 DAA, may represent multiple trials
Method in brief: as §1

[3] = tested on: Ipomoea hederacea (Morningglory, ivyleaf); assay: General postemergence herbicidal activity (Example 13); settings: post-emergent spray, 14 DAA
Method: Seeds or nutlets of the desired test plant species were planted in Sun Gro Metro-Mix® 360 planting mixture, which typically has a pH of 6.0 to 6.8 and an organic matter content of about 30 percent, in plastic pots with a surface area of 84.6 square centimeters (cm^2). When required to ensure good germination and healthy plants, a fungicide treatment and/or other chemical or physical treatment was applied. The plants were grown for 7-31 days (d) in a greenhouse with an approximate 15 hour (h) photoperiod which was maintained at about 23-29° C. during the day and 22-28° C. during the night. Nutrients and water were added on a regular basis and supplemental lighting was provided with overhead metal halide 1000-Watt lamps as necessary. The plants were employed for testing when they reached the first or second true leaf stage.
Treatments consisted of esters of compounds 33 and 39 and F and G. Compound F is methyl 6-amino-2-(4-chloro-2-fluoro-3-methoxyphenyl)-5-methoxypyrimidine-4-carboxylate; and compound G is methyl 4-amino-3-chloro-6-(4-chloro-2-fluoro-3-methoxyphenyl)picolinate. A weighed amount, determined by the highest rate to be tested, of each test compound was placed in a 25 mL glass vial and was dissolved in 4 mL of a 97:3 v/v (volume/volume) mixture of acetone and dimethyl sulfoxide (DMSO) to obtain concentrated stock solutions. […] The concentrated stock solutions obtained were diluted with 20 mL of an aqueous mixture containing acetone, water, isopropyl alcohol, DMSO, Atplus 411F crop oil concentrate, and Triton® X-155 surfactant in a 48.5:39:10:1.5:1.0:0.02 v/v ratio to obtain spray solutions containing the highest application rates. Additional application rates were obtained by serial dilution of 12 mL of the high rate solution into a solution containing 2 mL of a 97:3 v/v (volume/volume) mixture of acetone and DMSO and 10 mL of an aqueous mixture containing acetone, water, isopropyl alcohol, DMSO, Atplus 411F crop oil concentrate, and Triton® X-155 surfactant in a 48.5:39:10:1.5:1.0:0.02 v/v ratio to obtain ½×, ¼×, ⅛× and 1/16× rates of the high rate. Compound requirements are based upon a 12 mL application volume at a rate of 187 liters per hectare (L/ha). Formulated compounds were applied to the plant material with an overhead Mandel track sprayer equipped with 8002E nozzles calibrated to deliver 187 L/ha over an application area of 0.503 square meters (m^2) at a spray height of 18 inches (43 cm) above the average plant canopy height. Control plants were sprayed in the same manner with the solvent blank.
The treated plants and control plants were placed in a greenhouse as described above and watered by sub-irrigation to prevent wash-off of the test compounds. After 14 d, the condition of the test plants as compared with that of the untreated plants was determined visually and scored on a scale of 0 to 100 percent where 0 corresponds to no injury and 100 corresponds to complete kill.

[4] = 35 g ai/ha, 0 = no injury, 100 = complete kill

Row | SMILES | GR50 [1] | GR80 [1] | GR90 [1] | GR50 [2] | GR80 [2] | GR90 [2] | Visual Injury (%) IPOHE ([3]; 8.75 g ai/ha) | Visual Injury (%) IPOHE ([3]; 17.5 g ai/ha) | Visual Injury (%) IPOHE [3, 4] | Visual Injury (%) FIMMI [2] | further results
1 | COc1c(Cl)ccc(-c2nc(C(=O)OCc3ccccc3)c(Cl)c(N)c2F)c1F [Compound 1, benzyl 4-amino-3-chloro-6-(4-chloro-2-fluoro-3-methoxyphenyl)-5-fluoropicolinate] | <8.75 g ae/ha | 4.4 g ae/ha | 10.8 g ae/ha | <17.5 g ae/ha | <17.5 g ae/ha | <17.5 g ae/ha | – | – | – | – | pest or weed control at 17.5 g/ha ([1]; Schoenoplectiella juncoides, 504 h, read-out: Visual Injury (%) SCPJU): 99%
2 | COc1c(Cl)ccc(-c2cc(N)c(Cl)c(C(=O)OCc3ccccc3)n2)c1F [Compound 39] | – | – | – | – | – | – | 70% | 75% | 80% | 100% | –
3 | COC(=O)c1nc(-c2ccc(Cl)c(OC)c2F)nc(N)c1OC [Compound F, methyl 6-amino-2-(4-chloro-2-fluoro-3-methoxyphenyl)-5-methoxypyrimidine-4-carboxylate, reference compound] | – | – | – | – | – | – | – | – | – | – | Visual Injury (%) IPOHE ([3]; 70 g ai/ha): 80%; pest or weed control at 35 g/ha ([1]; Schoenoplectiella juncoides, 504 h, rice cropping systems, in-water applied (paddy), 35 g ae/ha, 21 DAA, may represent multiple trials, read-out: Visual Injury (%) SCPJU): 50%
4 | COC(=O)c1nc(-c2ccc(Cl)c(OC)c2F)cc(N)c1Cl [Compound G, methyl 4-amino-3-chloro-6-(4-chloro-2-fluoro-3-methoxyphenyl)picolinate, reference compound] | – | – | – | – | – | – | 40% | 50% | 65% | 61% | –
5 | COC(=O)c1nc(-c2ccc(Cl)c(OC)c2F)c(F)c(N)c1Cl [E, methyl 4-amino-3-chloro-6-(4-chloro-2-fluoro-3-methoxyphenyl)-5-fluoropicolinate, reference compound] | 9.6 g ae/ha | 20.0 g ae/ha | 29.5 g ae/ha | 14.4 g ae/ha | 21.7 g ae/ha | 26.8 g ae/ha | – | – | – | – | pest or weed control at 17.5 g/ha ([1]; Schoenoplectiella juncoides, 504 h, rice cropping systems, in-water applied (paddy), 17.5 g ae/ha, 21 DAA, may represent multiple trials, read-out: Visual Injury (%) SCPJU): 75%
